Source: US20170152258A9, “Substituted Pyridopyrazines as Syk Inhibitors” (HUTCHISON MEDIPHARMA LIMITED, priority 2012, published 2017)
“And” between values parts separate entries of the source, which are not always exact repeats. Equal entries are not always repeated.

Key:
RBL-2H3 cells = assay: IgE-induced Beta-hexosaminidase secretion in RBL-2H3 cells; type: cell-based; settings: DNP-BSA stimulation
Protocol: For the determination of IgE-induced Beta-hexosaminidase secretion, RBL-2H3 cells (SIBS) are seeded in 96 well plates at 4×10^4 cells per well and incubated in MEM media with 15% FBS and Glutamine ([…]) for 4 hours and sensitized with 0.5 ug/ml of SPE-7 overnight. Cells are washed 3 times with Tyrode's buffer and incubated in the presence or absence of various concentrations of the testing compound for 20 min at 37° C., 5% CO2. Cells are stimulated by adding 10 uL of DNP-BSA solution (150 ng/mL) to each well and incubating for 45 minutes at 37° C., 5% CO2. Then, 45 μL of the supernatant is taken and incubated with 100 μL of 1 mM 4-Nitrophenyl N-acetyl-β-D-glucosaminide (Sigma, Cat. No. N9376), which is diluted in 0.05 M citrate buffer (pH 4.5), for 1.5 hr at 37° C. The reactions are quenched by adding 185 μL of 0.05 M sodium carbonate buffer (pH 10.0). Plates are read at 405 nm on Multiskan (MK 3).

Syk kinase = Syk kinase (Homo sapiens, UniProt P43405); assay: SYK Enzymatic Assay (Z-LYTE Tyr 2 peptide); type: biochemical; settings: 8 concentrations 1 μM down to 0.0003 μM
Summary of the method: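 Z-LYTE format using Tyr 2 peptide. After the 1 h room-temperature kinase reaction, development reagent was added for 1 h, then stop reagent. Fluorescence was read at 445 and 520 nm. Compounds were tested at 8 concentrations, 1 μM down to 0.0003 μM (1:3 dilutions).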

[1] = Rattus norvegicus, RBL-2H3, IgE-induced Beta-hexosaminidase secretion
[2] = IgE-induced Beta-hexosaminidase secretion

| SMILES | IC50 (RBL-2H3 cells; [1]) | IC50 (Syk kinase) | IC50 (RBL-2H3 cells; [2]) |
| --- | --- | --- | --- |
| CCN(CC)c1ccc(-c2cc3nccnc3c(OC[C@@H]3CN(S(C)(=O)=O)CCO3)n2)cc1 [Compound 119] | 34 nM | 16 nM |  |
| Cn1ccc2ccc(-c3cc4nccnc4c(OC[C@@H]4CN(S(C)(=O)=O)CCO4)n3)cc21 [Compound 120] | 41 nM | 61 nM |  |
| CC(=O)N1CCN(c2ccc(-c3cc4nccnc4c(OC[C@@H]4CN(S(C)(=O)=O)CCO4)n3)cc2)CC1 [Compound 122] | 73 nM | 15 nM |  |
| CN(C)c1ccc(-c2cc3nccnc3c(O[C@@H]3CCOC3)n2)cc1 [Compound 123] | 35 nM | 30 nM |  |
| CS(=O)(=O)N1CCC(c2ccc(-c3cc4nccnc4c(O[C@@H]4CCOC4)n3)cc2)CC1 [Compound 124] | 45 nM | 33 nM |  |
| CN1CCN(c2ccc(-c3cc4nccnc4c(O[C@@H]4CCOC4)n3)cc2)CC1 [Compound 125] | 43 nM | 31 nM |  |
| COc1cc(-c2cc3nccnc3c(OC[C@@H]3CN(S(C)(=O)=O)CCO3)n2)ccc1OCCN(C)C [Compound 126] | 366 nM | 41 nM |  |
| CN(C)c1ccc(-c2cc3nccnc3c(OC3CCCOC3)n2)cc1 (centres unmarked) [Compound 127] | 77 nM | 58 nM |  |
| CNC(=O)COc1ccc(-c2cc3nccnc3c(OC[C@@H]3CN(S(C)(=O)=O)CCO3)n2)cc1 [Compound 129] | 230 nM | 50 nM |  |
| CCN(CC)c1ccc(-c2cc3nccnc3c(OC[C@@H]3CN(C(C)=O)CCO3)n2)cc1 [Compound 131] | 39 nM | 28 nM |  |
| CNc1ccc(-c2cc3nccnc3c(O[C@@H]3CCOC3)n2)cc1 [Compound 133] | 24 nM | 45 nM |  |
| Cc1cc(-c2cc3nccnc3c(OC[C@@H]3CN(S(C)(=O)=O)CCO3)n2)ccc1N(C)C [Compound 134] | 15 nM | 3 nM |  |
| CN(C)c1ccc(-c2cc3nccnc3c(OC[C@@H]3CN(C(N)=O)CCO3)n2)cc1 [Compound 136] | 99 nM | 25 nM |  |
| CNC(=O)N1CCO[C@H](COc2nc(-c3ccc(N(C)C)cc3)cc3nccnc23)C1 [Compound 137] | 45 nM | 28 nM |  |
| CC(=O)N1CCO[C@H](COc2nc(-c3ccc(N(C)C)c(F)c3)cc3nccnc23)C1 [Compound 139] | 119 nM | 95 nM | 194 nM |
| CC(=O)N1CCO[C@H](COc2nc(-c3ccc(N(C)C)c(Cl)c3)cc3nccnc23)C1 [Compound 140] | 31 nM | 52 nM |  |
| CC(=O)N1CCO[C@H](COc2nc(-c3ccc(NC(C)C)cc3)cc3nccnc23)C1 [Compound 141] | 81 nM | 98 nM |  |
| COc1ccc(-c2cc3nccnc3c(OC[C@@H]3CN(C(N)=O)CCO3)n2)cc1OC [Compound 142, (S)-2-(((7-(3,4-dimethoxyphenyl)pyrido[3,4-b]pyrazin-5-yl)oxy)methyl)morpholine-4-carboxamide] | 950 nM | 68 nM |  |
| CNC(=O)N1CCO[C@H](COc2nc(-c3ccc(OC)c(OC)c3)cc3nccnc23)C1 [Compound 143] | 244 nM | 80 nM |  |
| CC(=O)N1CCO[C@H](COc2nc(-c3ccc(N(C)C(C)C)cc3)cc3nccnc23)C1 [Compound 144, (S)-1-(2-(((7-(4-(isopropyl(methyl)amino)phenyl)pyrido[3,4-b]pyrazin-5-yl)oxy)methyl)morpholino)ethanone] | 80 nM | 57 nM |  |
| CC(=O)N1CCO[C@H](COc2nc(-c3ccc4c(c3)OCCN4C)cc3nccnc23)C1 [Compound 148] | 137 nM | 95 nM |  |
| c1cnc2c(O[C@@H]3CCOC3)nc(-c3ccc(N4CCOCC4)cc3)cc2n1 [Compound 149] | 60 nM | 30 nM |  |

Now from value to compound:

| IC50 (RBL-2H3 cells; [1]) | IC50 (Syk kinase) | IC50 (RBL-2H3 cells; [2]) | SMILES |
| --- | --- | --- | --- |
| 97 nM | 92 nM |  | COc1ccc(-c2cc3nccnc3c(O[C@@H]3CCOC3)n2)cc1OC [Compound 150] |
| 43 nM | 44 nM |  | CCN(CC)c1ccc(-c2cc3nccnc3c(O[C@@H]3CCOC3)n2)cc1 [Compound 151] |
| 48 nM | 33 nM |  | CC(=O)N1CCN(c2ccc(-c3cc4nccnc4c(O[C@@H]4CCOC4)n3)cc2)CC1 [Compound 152] |
| 26 nM | 33 nM |  | CS(=O)(=O)N1CCN(c2ccc(-c3cc4nccnc4c(O[C@@H]4CCOC4)n3)cc2)CC1 [Compound 153] |
| 78 nM | 43 nM |  | CN(C)c1ccc(-c2cc3nccnc3c(O[C@@H]3CCOC3)n2)cc1Cl [Compound 154] |
| 29 nM | 32 nM |  | Cc1cc(-c2cc3nccnc3c(O[C@@H]3CCOC3)n2)ccc1N(C)C [Compound 155] |
| 32 nM | 38 nM |  | CC(=O)N1CCC(c2ccc(-c3cc4nccnc4c(O[C@@H]4CCOC4)n3)cc2)CC1 [Compound 156] |
| 32 nM | 30 nM |  | CC(=O)N1CCO[C@H](COc2nc(-c3ccc(N(C)C)c(C)c3)cc3nccnc23)C1 [Compound 158] |
| 108 nM | 151 nM |  | CC(=O)N1CCO[C@H](COc2nc(-c3cc(C)c(N(C)C)c(C)c3)cc3nccnc23)C1 [Compound 161] |
| 53 nM | 36 nM |  | Cc1cc(-c2cc3nccnc3c(OC[C@@H]3CN(C(N)=O)CCO3)n2)ccc1N(C)C [Compound 163] |
| 82 nM | 66 nM |  | CNC(=O)N1CCO[C@H](COc2nc(-c3ccc(N(C)C)c(C)c3)cc3nccnc23)C1 [Compound 164] |
| 95 nM | 48 nM |  | CN(C)c1ccc(-c2cc3nccnc3c(OC[C@@H]3CN(C(N)=O)CCO3)n2)cc1Cl [Compound 165] |
| 71 nM | 52 nM |  | CNC(=O)N1CCO[C@H](COc2nc(-c3ccc(N(C)C)c(Cl)c3)cc3nccnc23)C1 [Compound 166] |
| 55 nM | 50 nM |  | CN(C)c1ccc(-c2cc3nccnc3c(OC[C@@H]3CN(C(=O)C(C)(F)F)CCO3)n2)cc1 [Compound 172] |
| 54 nM | 32 nM |  | CN(C)c1ccc(-c2cc3nccnc3c(OC[C@@H]3CN(C(=O)CO)CCO3)n2)cc1 [Compound 173] |
| 69 nM | 55 nM |  | CC(C)c1ccc(-c2cc3nccnc3c(OC[C@@H]3CN(C(N)=O)CCO3)n2)cc1 [Compound 175] |
| 67 nM | 59 nM |  | CNC(=O)N1CCO[C@H](COc2nc(-c3ccc(C(C)C)cc3)cc3nccnc23)C1 [Compound 176] |
| 79 nM | 91 nM |  | CC(=O)N1CCN(c2ccc(-c3cc4nccnc4c(O[C@@H]4CCCOC4)n3)cc2)CC1 [Compound 177] |
| 63 nM | 19 nM |  | CN(C)c1ccc(-c2cc3nccnc3c(OC[C@@H]3CN(S(N)(=O)=O)CCO3)n2)cc1 [Compound 178] |
| 57 nM | 91 nM and 68 nM | 69 nM | CC(C)c1ccc(-c2cc3nccnc3c(OC[C@@H]3CN(S(C)(=O)=O)CCO3)n2)cc1 [Compound 181] |
| 95 nM | 76 nM |  | CN(C)c1ccc(-c2cc3nccnc3c(OC[C@@H]3CN(C(N)=O)CCO3)n2)cc1F [Compound 183] |
| 62 nM | 84 nM |  | CNC(=O)N1CCO[C@H](COc2nc(-c3ccc(N(C)C)c(F)c3)cc3nccnc23)C1 [Compound 184] |
| 64 nM | 40 nM |  | CC(=O)N1CCO[C@H](COc2nc(-c3ccc4c(c3)CCCN4C)cc3nccnc23)C1 [Compound 185] |
